Laboratory results reported in US7893220B2, “Busulfan immunoassay” (Saladax Biomedical Inc., priority 2004, dated 2011).

How the values were obtained:
[1] = tested on: busulfan antibodies (antisera of example 7); assay: Indirect competitive microtiter plate immunoassay (ELISA), busulfan derivative 7-BSA sensitized plates; format: binding, mouse; conditions: antibodies to Busulfan-KLH (example 7); plate coating Busulfan-BSA conjugate example 5, derivative 7; ratio of IC50 busulfan to IC50 analyte
Method: (§1) Ten Female BALB/c mice were immunized i.p. with 100 μg/mouse of Busulfan-BTG immunogen prepared in example 3 or with Busulfan-KLH immunogen prepared in example 4, emulsified in Complete Freund's Adjuvant. Mice were boosted once four weeks after the initial injection with 100 μg/mouse of the same immunogens emulsified in Incomplete Freund's Adjuvant. Ten or 28 days after the boost test bleeds from each mouse were obtained by orbital bleed. The anti-serum from these test bleeds contained Busulfan antibodies evaluated in Examples 9 , 10a and 10b.
The ELISA method for measuring busulfan concentrations was performed in polystyrene microtiter plates (Nunc MaxiSorp C8 or F8 Immunomodules) optimized for protein binding and containing 96 wells per plate. Each well was coated with busulfan-BSA conjugate (prepared as in example 5) by adding 300 μL of busulfan-BSA conjugate at 10 μg/mL in 0.05M sodium bicarbonate, pH=9.6, and incubating for three hours at room temperature. The wells were washed with 0.05M sodium bicarbonate, pH 9.6 and then were blocked with 400 μL of 5% sucrose, 0.2% sodium caseinate solution for 30 minutes at room temperature. After removal of the post-coat solution the plates were dried at 37° C. overnight.
(§2) The ELISA method for screening busulfan antibodies (produced in example 7) was performed with the microtiter plates that were sensitized with busulfan-BSA as described in examples 8a and 8b. The antibody screening assay was performed by diluting the antisera containing busulfan antibodies (of example 7) to 1:100, 1:1,000, 1:10,000 and 1:100,000 in phosphate buffered saline containing 0.1% BSA and 0.01% thimerosal. To each well of busulfan-BSA sensitized wells (prepared in examples 8a and 8b) 100 μL of diluted antibody was added and incubated for 10 minutes at room temperature with shaking. During this incubation antibody binds to the busulfan-conjugate in the well. The wells of the plates were washed three times with 0.02 M TRIS, 0.9% NaCl, 0.5% Tween-80 and 0.001% Thimerosal, pH 7.8 to remove any unbound antibody. […] Following the incubation for color development, 50 μL of stop solution (1.5% sodium fluoride in di H2O) was added to each well to stop the color development and after 10 seconds of shaking the absorbance was determined at 650 nm (Molecular Devices Plate Reader). The amount of antibody in a well was proportional to the absorbance measured and was expressed as the dilution (titer) resulting in an absorbance of 1.5. Titers were determined by graphing Log antibody dilution of the antibody measured (x-axis) vs. absorbance 650 nm (y-axis) and extrapolating the titer at an absorbance of 1.5. The titer determined the concentration (dilution) of antibody used in the indirect competitive Microtiter plate assay described in examples 10a and 10b. […]

[2] = tested on: busulfan antibodies (antisera of example 7); assay: Indirect competitive microtiter plate immunoassay (ELISA), busulfan derivative 11-BSA sensitized plates; format: binding, mouse; conditions: antibodies to Busulfan-KLH (example 7); plate coating Busulfan-BSA conjugate example 6, derivative 11; ratio of IC50 busulfan to IC50 analyte
Method: as §1
The ELISA method for measuring busulfan concentrations was performed in polystyrene microtiter plates (Nunc MaxiSorp C8 or F8 Immunomodules) optimized for protein binding and containing 96 wells per plate. Each well was coated with busulfan-BSA conjugate (prepared as in example 6) by adding 300 μL of busulfan-BSA conjugate at 2.5 μg/mL in 7.5 μg/mL BSA, 0.05M sodium bicarbonate, pH=9.6, and incubating for three hours at room temperature. The wells were washed with 0.05M sodium bicarbonate, pH 9.6 and then were blocked with 400 μL of 5% sucrose, 0.2% sodium caseinate solution for 30 minutes at room temperature. After removal of the post-coat solution the plates were dried at 37° C. overnight.
as §2, with “well.” for “well. The wells of the plates were washed three times with 0.02 M TRIS, 0.9% NaCl, 0.5% Tween-80 and 0.001% Thimerosal, pH 7.8 to remove any unbound antibody.”

SMILES | Cross-Reactivity of Competitive Immunoassay [1] | Cross-Reactivity of Competitive Immunoassay [2]
O=S1(=O)CCCC1 [Tetramethylene sulfone, tetramethylene sulfone] | <0.4% | <0.24%
O=S1(=O)CCC(O)C1 (centres unmarked) [Tetrahydrothiophene-3-ol-1,1-dioxide, tetrahydrothiophene-3-ol-1,1-dioxide] | <0.4% | <0.24%
CS(=O)(=O)OCCCCOS(C)(=O)=O [Busulfan] | 100% | 100%
C1CCSC1 [Tetrahydrothiophene, tetrahydrothiophene] | <0.4% | <0.24%
